Experimental findings from PMC11125039, “An Effective Modification Strategy to Build Multifunctional Peptides Based on a Trypsin Inhibitory Peptide of the Kunitz Family” (Pharmaceutics, 2024) are described below.

Where two headings read alike, the source gives them in different places. Bridge positions count the residues as written; N and C are the ends. Peptide text beside a SMILES is read from it.

The test system of assay [1] is HCT116. The experiment in a line: Antiproliferation assay (MTT). The format is cell-based, human. The following applies: HCT116, 24 h.
Description: (§4) The tested human cell lines in this assay included cancerous and non-cancerous cell lines: a human breast cancer cell line (MCF-7), a human lung carcinoma cell line (H838), a human colorectal carcinoma cell line (HCT116), and a human glioblastoma astrocytoma cell line (U251MG); these cell lines were incubated with the peptides at concentrations between 10^−4 to 10^−9 M to study their antiproliferation ability against cancer cells. Also, for the safety evaluation, a human skin keratinocyte cell line (HaCaT) was selected to investigate the cytotoxicity of peptides against normal human cells.
At first, after the stock cells were revived, they were transferred into a 75 mL flask with 10 mL of the corresponding culture medium and cultured for 3–5 days at 37 °C until most cells had attached to the flask wall. Then, the culture medium was removed, and 10 mL of PBS was used to wash the wall twice and discarded. Subsequently, 3–4 mL of a trypsin solution was added for 2–3 min to detach the cells from the container wall and then 8–10 mL of FBS was added to stop the digestion reaction. The cell suspension was transferred into a 15 mL tube and centrifuged. The supernatant was removed and 4 mL of complete growth medium was added to this tube to prepare a stock cell suspension. Approximately 10 µL of a mixture containing an equal volume of trypan blue and cell medium was dropped into a chamber to measure the density of cells under the microscope. Based on the cell density, the cell suspension was diluted with foetal bovine serum (FBS) (Sigma-Aldrich, St. Louis, MO, USA) to the standard cell density (H838, MCF-7: 8 × 10^4; U251MG: 5 × 10^4; HCT116: 2 × 10^5; HaCaT: 2 ×10^5 cells/mL). Then, it was seeded into a 96-well plate at 100 μL/well. After 20–24 h incubation, 100 μL of serum-free medium was used to replace the previous FBS medium and the plate was incubated another 4 h for cell starvation. At the same time, the peptide was dissolved in DMSO at a concentration of 10^−2 M and then mixed with the serum-free medium at working concentrations ranging from 10^−7 to 10^−4 M. Finally, the medium in the 96-well plate was replaced with the peptide solutions. The experimental group used 100 μL of the working concentration peptide solution. The vehicle group consisted of 1 µL of DMSO and 99 µL of serum-free medium. The blank and growth groups both comprised 100 µL of serum-free medium. The loaded 96-well plate was incubated for another 24 h for the treatment. The next day, 10 µL of MTT was added to each well and incubated for 2 h, after which, all media in each well were discarded and substituted with 100 μL of DMSO. After 10 min of shaking, the cell viability in each well was read at a wavelength of 570 nm.
Assay [2] deals with HaCaT. The experiment in a line: Antiproliferation assay (MTT), normal cell cytotoxicity. To be noted: HaCaT (normal cell line), 24 h. In kind it is cell-based, human.
Description: as §4
(§5) At first, after the stock cells were revived, they were transferred into a 75 mL flask with 10 mL of the corresponding culture medium and cultured for 3–5 days at 37 °C until most cells had attached to the flask wall. Then, the culture medium was removed, and 10 mL of PBS was used to wash the wall twice and discarded. Subsequently, 3–4 mL of a trypsin solution was added for 2–3 min to detach the cells from the container wall and then 8–10 mL of FBS was added to stop the digestion reaction. The cell suspension was transferred into a 15 mL tube and centrifuged. The supernatant was removed and 4 mL of complete growth medium was added to this tube to prepare a stock cell suspension. Approximately 10 µL of a mixture containing an equal volume of trypan blue and cell medium was dropped into a chamber to measure the density of cells under the microscope. Based on the cell density, the cell suspension was diluted with foetal bovine serum (FBS) (Sigma-Aldrich, St. Louis, MO, USA) to the standard cell density (H838, MCF-7: 8 × 10^4; U251MG: 5 × 10^4; HCT116: 2 × 10^5; HaCaT: 2 ×10^5 cells/mL). Then, it was seeded into a 96-well plate at 100 μL/well. After 20–24 h incubation, 100 μL of serum-free medium was used to replace the previous FBS medium and the plate was incubated another 4 h for cell starvation. […] After 10 min of shaking, the cell viability in each well was read at a wavelength of 570 nm.
Assay [3] concerns E. coli (BAA 2340)-infected waxworms. The format is in vivo, Galleria mellonella. On the procedure: The larvae of Galleria mellonella were used to evaluate the in vivo antibacterial activity of the peptides. In this assay, the larvae (250 ± 25 mg) (Livefood UK Ltd., Rooks Bridge, UK) of the infected group were infected with 10 μL of a bacterial suspension (1 × 10^7 CFU/mL). After one hour, 10 μL of a peptide solution was injected into each infected larva. As a positive control, infected larvae received 20 mg/kg of rifampicin. The vehicle control consisted of uninfected larvae administered 10 μL of PBS. All larvae were then monitored every 24 h for a duration of five days.

Assay [4] has as its system U251MG. The experiment in a line: Antiproliferation assay (MTT). The format is cell-based, human. The following applies: 24 h.
Description: as §4, §5
Assay [5] deals with H838. The experiment in a line: Antiproliferation assay (MTT). In kind it is cell-based, human. To be noted: H838, 24 h.
Description: as §4
(§6) At first, after the stock cells were revived, they were transferred into a 75 mL flask with 10 mL of the corresponding culture medium and cultured for 3–5 days at 37 °C until most cells had attached to the flask wall. Then, the culture medium was removed, and 10 mL of PBS was used to wash the wall twice and discarded. Subsequently, 3–4 mL of a trypsin solution was added for 2–3 min to detach the cells from the container wall and then 8–10 mL of FBS was added to stop the digestion reaction. The cell suspension was transferred into a 15 mL tube and centrifuged. The supernatant was removed and 4 mL of complete growth medium was added to this tube to prepare a stock cell suspension. […] After 10 min of shaking, the cell viability in each well was read at a wavelength of 570 nm.
In assay [6] the test system is E. coli (BAA 2340). The experiment in a line: Time-killing kinetic assay. The format is cell-based, Escherichia coli. On the procedure:
(§1) The time-killing kinetic assay was executed to explore the killing efficiency of the peptides against bacteria. […] The bacteria were cultured using the same method as that employed in the antimicrobial activity determination assay. […] All colonies were counted and recorded after the seeded plates had been incubated at 37 °C for 24 h.

In assay [7] the test system is E. coli (NCTC 13846). The experiment in a line: Time-killing kinetic assay. In kind it is cell-based, Escherichia coli. To be noted: for killing kinetics (in words): MIC, 2 × MIC and 4 × MIC. The procedure: as §1
Assay [8] has as its system MCF-7. To be noted: MCF-7, 24 h, MTT.
Description: as §4, §6
Assay [9] relates to E. coli (BAA 2340). The experiment in a line: SYTOX Green permeability assay. The format is cell-based, Escherichia coli. The following applies: at the MIC. The procedure:
(§2) The SYTOX^TM Green Nucleic Acid Stain (ThermoFisher Scientific, Waltham, MA, USA) assay was used to investigate the antibacterial mechanism of the peptides as they cannot cross intact membranes, but can easily penetrate the damaged membranes characteristic of dead cells.
(§3) After being sub-cultured for 2 h, the bacteria were centrifuged at 1000× g for 10 min at 4 °C; then, the culture medium was discarded. […] After a third wash, the bacteria were diluted with the same solution until they reached the logarithmic growth phase in which the OD value just reached 0.70 at a wavelength of 590 nm. […] Finally, 10 μL of SYTOX^TM green nucleic acid stain (5 μM) was added to the plate and the mixture was incubated at 37 °C under dark conditions for another 5 min. […] Bacterial medium with 5% TSB acted as the negative control; bacterial medium treated with a melittin peptide solution (8 μM) was set as the positive control; 5% TSB alone was the blank control.

Assay [10] has as its system E. coli (ATCC CRM 8739). The experiment in a line: SYTOX Green permeability assay. In kind it is cell-based, Escherichia coli. To be noted: at the MIC. On the procedure:
as §2, §3

The test system of assay [11] is E. coli (NCTC 13846). The experiment in a line: SYTOX Green permeability assay. The following applies: at the MIC. The format is cell-based, Escherichia coli. The procedure:
as §2, §3

Where [12] appears, read: 4 × MIC of peptide, after 120 h of infection.

With `CC[C@H](C)[C@H](NC(=O)[C@H](CC(N)=O)NC(=O)[C@@H](NC(=O)[C@H](C)N)C(C)C)C(=O)N1CCC[C@H]1C(=O)N[C@@H](Cc1ccccc1)C(=O)N[C@@H](CCCCN)C(=O)N[C@H](C(=O)N[C@@H](Cc1c[nH]cn1)C(=O)N[C@@H](Cc1ccccc1)C(=O)N[C@@H](CCCCN)C(=O)N[C@H](C(=O)N[C@@H](Cc1c[nH]cn1)C(=O)N[C@@H](Cc1ccccc1)C(=O)N[C@@H](CCCNC(=N)N)C(=O)N[C@H]1CSSC[C@@H](C(=O)O)NC(=O)[C@H](Cc2ccccc2)NC(=O)[C@H](C)NC(=O)[C@H](C)NC(=O)[C@H](CCCCN)NC1=O)C(C)C)C(C)C` [OSTI−2461] (H-AVNIPFKVHFKVHFRCKAAFC-OH; disulfide 16-21; N-terminus and C-terminus assumed), the IC50 entry in assay [1] and in [2] was “N.I” each time.

Turning to `CO[C@H]1/C=C/O[C@@]2(C)Oc3c(C)c(O)c4c(O)c(c(/C=N/N5CCN(C)CC5)c(O)c4c3C2=O)NC(=O)/C(C)=C\C=C\[C@H](C)[C@H](O)[C@@H](C)[C@@H](O)[C@@H](C)[C@H](OC(C)=O)[C@@H]1C` [rifampicin, reference compound], the “mortality of infected larvae” value in [3] (20 mg/kg, 5 days, positive control) is given as 20%.

For `CC[C@H](C)[C@H](N)C(=O)N[C@@H](CCCCN)C(=O)N[C@@H](Cc1ccccc1)C(=O)N[C@@H](CCCCN)C(=O)N[C@H](C(=O)N[C@@H](Cc1c[nH]cn1)C(=O)N[C@@H](Cc1ccccc1)C(=O)N[C@@H](CCCNC(=N)N)C(=O)N[C@H]1CSSC[C@@H](C(=O)O)NC(=O)[C@H](Cc2ccccc2)NC(=O)[C@H](C)NC(=O)[C@H](C)NC(=O)[C@H](CCCCN)NC1=O)C(C)C` [OSTI−1696] (H-IKFKVHFRCKAAFC-OH; disulfide 9-14; N-terminus and C-terminus assumed), the IC50 entry in [4], in assay [1] and in [5] was “N.I” in each case. For the same molecule, in [3] (setting [12]), the “mortality of infected larvae” value amounted to 20%. The “time to kill bacteria” value in assay [6] (at 2 × MIC) is on record as at most 5 min; in assay [6] (at 4 × MIC) it was at most 5 min; in assay [6] (at the MIC), at most 10 min. Also, the “killing kinetics (in words)” value in assay [7] is “almost instant bactericidal activity”.

In the case of `CC[C@H](C)[C@H](NC(=O)[C@@H](N)C(C)C)C(=O)N[C@@H](Cc1ccccc1)C(=O)N[C@@H](CCCCN)C(=O)N[C@H](C(=O)N[C@@H](Cc1ccccc1)C(=O)N[C@@H](Cc1c[nH]c2ccccc12)C(=O)N[C@@H](CCCNC(=N)N)C(=O)N[C@H]1CSSC[C@@H](C(=O)O)NC(=O)[C@H](Cc2ccccc2)NC(=O)[C@H](C)NC(=O)[C@H](C)NC(=O)[C@H](CCCCN)NC1=O)C(C)C` [OSTI−1716] (H-VIFKVFWRCKAAFC-OH; disulfide 9-14; N-terminus and C-terminus assumed), the IC50 result in assay [1] is given as “N.I”.

As to `CC(C)[C@H](NC(=O)[C@H](C)N)C(=O)N[C@@H](CCCCN)C(=O)N[C@@H](CCCNC(=N)N)C(=O)N[C@@H](C)C(=O)N[C@H](C(=O)N[C@@H](CCCCN)C(=O)N[C@@H](CCCNC(=N)N)C(=O)N[C@@H](Cc1ccccc1)C(=O)N[C@@H](CCCCN)C(=O)N[C@H](C(=O)N[C@@H](Cc1c[nH]cn1)C(=O)N[C@@H](Cc1ccccc1)C(=O)N[C@@H](CCCNC(=N)N)C(=O)N[C@H]1CSSC[C@@H](C(=O)O)NC(=O)[C@H](Cc2ccccc2)NC(=O)[C@H](C)NC(=O)[C@H](C)NC(=O)[C@H](CCCCN)NC1=O)C(C)C)C(C)C` [OSTI−2363] (H-AVKRAVKRFKVHFRCKAAFC-OH; disulfide 15-20; N-terminus and C-terminus assumed), the IC50 entry in [4], in assay [1], in assay [8] and in assay [2] was “N.I” throughout. Further, the “mortality of infected larvae” value in assay [3] (setting [12]) is 40%. Also, the “killing kinetics (in words)” value in assay [6] (MIC, 2 × MIC and 4 × MIC) is reported as “almost instant bactericidal activity”; in assay [7], “almost instant bactericidal activity”. In addition, the “time to kill bacteria” value in assay [6] (at the MIC) and in [7] (lowest tested concentration (MIC)) was at most 5 min throughout.

Turning to `CC[C@H](C)[C@H](NC(=O)[C@H](CC(N)=O)NC(=O)[C@@H](NC(=O)[C@H](C)N)C(C)C)C(=O)N1CCC[C@H]1C(=O)N[C@@H](Cc1ccccc1)C(=O)N[C@@H](CCCCN)C(=O)N[C@H](C(=O)N[C@@H](Cc1c[nH]cn1)C(=O)N[C@@H](Cc1ccccc1)C(=O)N[C@@H](CCCNC(=N)N)C(=O)N[C@H]1CSSC[C@@H](C(=O)O)NC(=O)[C@H](Cc2ccccc2)NC(=O)[C@H](C)NC(=O)[C@H](C)NC(=O)[C@H](CCCCN)NC1=O)C(C)C` [OSTI−1949] (H-AVNIPFKVHFRCKAAFC-OH; disulfide 12-17; N-terminus and C-terminus assumed), the IC50 entry in [4], in [1], in assay [8], in [2] and in [5] was “N.I” throughout. Further, the “uptake of SYTOX Green” value in [9], in assay [10] and in [11] was “approximately 50%” throughout.
